Results reported in ChEMBL document CHEMBL5154843, “Discovery of spirooxadiazoline oxindoles with dual-stage antimalarial activity” (Eur J Med Chem, 2022).
Activity calls are given as the source filed them. The calls are words filed in the database; no cut-off is given here.

Key:
Plasmodium berghei = assay: Antiplasmodial activity against hepatic stage Plasmodium berghei infected in Huh-7 cells assessed as cell viability incubated for 1 hrs and measured by 48 hrs by bioluminescence assay; assay type: functional, organism-based
Plasmodium falciparum [1] = assay: Antiplasmodial activity against erythrocytic stage of chloroquine-resistant Plasmodium falciparum W2 measured after 48 hrs by flow cytometry; assay type: functional, organism-based; settings: W2, 48 h
Plasmodium falciparum [2] = assay: Antiplasmodial activity against Plasmodium falciparum 3D7 assessed as effect on cytosolic sodium concentration at 50 nM measured after 90 mins by SBFI-dye based fluorescence method; assay type: functional, organism-based
Plasmodium falciparum [3] = assay: Inhibition of plasmodium falciparum 3D7 ATP4 ATPase activity under high-soidum conditions at 125 nM
Plasmodium falciparum [4] = assay: Inhibition of plasmodium falciparum 3D7 ATP4 ATPase activity under high-soidum conditions at 50 uM
Plasmodium falciparum [5] = assay: Antiplasmodial activity against Plasmodium falciparum 3D7 measured after 72 hrs by parasite proliferation assay; assay type: functional, organism-based; settings: 3D7, 72 h
Plasmodium falciparum [6] = assay: Inhibition of plasmodium falciparum 3D7 ATP4 ATPase activity under low-soidum conditions at 50 uM

Row | SMILES | IC50 (Plasmodium berghei) [µM] | IC50 (Plasmodium falciparum [1]) [µM] | other results
1 | O=C1Nc2ccc(Cl)cc2C12OC(c1ccccc1)=NN2c1cccc(Cl)c1 (stereo unspecified) | 7 | 6.4 | 
2 | O=C1Nc2cc(Br)ccc2C12OC(c1ccccc1)=NN2c1cccc(Cl)c1 (stereo unspecified) |  | > 10 | 
3 | CC(C)(C)C1=NN(c2cccc(Cl)c2)C2(O1)C(=O)Nc1cc(Br)ccc12 (stereo unspecified) | 9.5 | 4.6 | 
4 | C[C@H]1Cc2c([nH]c3cc(Cl)c(F)cc23)[C@@]2(N1)C(=O)Nc1ccc(Cl)cc12 |  |  | Activity (Plasmodium falciparum [2]): Active; inhibition (Plasmodium falciparum [3]): Active
5 | COc1ccc(C2=NN(c3ccccc3)C3(O2)C(=O)Nc2ccccc23)cc1 (stereo unspecified) |  | > 10 | 
6 | COc1ccc(C2=NN(c3ccccc3)C3(O2)C(=O)Nc2ccc(Cl)cc23)cc1 (stereo unspecified) |  | > 10 | 
7 | O=C1Nc2ccccc2C12OC(c1ccccc1)=NN2c1cccc(Cl)c1 (stereo unspecified) |  | > 10 | 
8 | COc1ccc(C2=NN(c3ccccc3)C3(O2)C(=O)Nc2ccc(Br)cc23)cc1 (stereo unspecified) | > 10 | 8.3 | 
9 | CC(C)(C)C1=NN(c2cccc(Cl)c2)C2(O1)C(=O)Nc1cc(Cl)ccc12 (stereo unspecified) | > 10 | 3.8 | 
10 | O=C1Nc2ccc(Cl)cc2C12OC(c1ccc(Cl)cc1)=NN2c1ccccc1 (stereo unspecified) |  | > 10 | 
11 | CC(C)(C)C1=NN(c2cccc(Cl)c2)C2(O1)C(=O)Nc1ccc(Cl)cc12 (stereo unspecified) | 5.3 | 3.5 | 
12 | COc1ccc(C2=NN(c3ccccc3)C3(O2)C(=O)Nc2c(Cl)cccc23)cc1 (stereo unspecified) |  | > 10 | 
13 | CC(C)(C)C1=NN(c2ccccc2Cl)C2(O1)C(=O)Nc1ccc(Cl)cc12 (stereo unspecified) |  | > 10 | 
14 | O=C1Nc2cc(Cl)ccc2C12OC(c1ccccc1)=NN2c1cccc(Cl)c1 (stereo unspecified) | 7.2 | 8.6 | 
15 | O=C1Nc2ccc(Br)cc2C12OC(c1cccc(Cl)c1)=NN2c1ccccc1 (stereo unspecified) |  | > 10 | 
16 | O=C1Nc2ccc(Br)cc2C12OC(c1ccccc1)=NN2c1ccc(Cl)cc1 (stereo unspecified) | 4.1 | 6 | inhibition (Plasmodium falciparum [4]): Active; IC50 (Plasmodium falciparum [5]): 6.2 µM; inhibition (Plasmodium falciparum [6]): Active
17 | O=C1Nc2c(Cl)cccc2C12OC(c1ccc(Cl)cc1)=NN2c1ccccc1 (stereo unspecified) |  | > 10 | 
18 | O=C1Nc2c(Cl)cccc2C12OC(c1ccccc1)=NN2c1ccc(Cl)cc1 (stereo unspecified) | > 10 | 7.6 | 
19 | O=C1Nc2c(Cl)cccc2C12OC(c1cccc(Cl)c1)=NN2c1ccccc1 (stereo unspecified) |  | > 10 | 
20 | CC(C)(C)C1=NN(c2cccc(Cl)c2)C2(O1)C(=O)Nc1ccc(Br)cc12 (stereo unspecified) | 9 | 7.5 | 
21 | O=C1Nc2ccc(Br)cc2C12OC(c1ccccc1)=NN2c1cccc(Cl)c1 (stereo unspecified) | 3.9 | 6.7 | 
22 | O=C1Nc2c(Cl)cccc2C12OC(c1ccccc1)=NN2c1cccc(Cl)c1 (stereo unspecified) |  | > 10 | 
23 | O=C1Nc2ccc(Br)cc2C12OC(c1ccc(Cl)cc1)=NN2c1ccccc1 (stereo unspecified) |  | > 10 | 
24 | O=C1Nc2c(Cl)cccc2C12OC(c1cccc(Cl)c1)=NN2c1cccc(Cl)c1 (stereo unspecified) |  | > 10 | 
25 | O=C1Nc2ccc(Cl)cc2C12OC(c1cccc(Cl)c1)=NN2c1ccccc1 (stereo unspecified) |  | > 10 | 
26 | O=C1Nc2ccccc2C12OC(c1cccc(Cl)c1)=NN2c1ccccc1 (stereo unspecified) |  | > 10 | 
27 | CC(C)(C)C1=NN(c2ccccc2Cl)C2(O1)C(=O)Nc1ccc(Br)cc12 (stereo unspecified) |  | > 10 | 
